Measured values reported in article PMC9824012, “Exploring Antimicrobial Peptides Efficacy against Fire Blight (Erwinia amylovora)” (Plants, 2022).

Tested on: Erwinia amylovora
Assay: Transmission electron microscopy of treated cells
Type: cell-based, Erwinia amylovora strain PGL Z1
Details: antibiotic control 0.5 mg/mL
Procedure: Aliquots of E. amylovora suspensions were incubated with the KL29 for 15 min at room temperature to investigate peptide antibacterial modes of action (lytic and non-lytic). E. amylovora suspensions treated with 0.5 mg/mL of streptomycin (bacteriostatic antibiotic), and ampicillin (bactericidal antibiotic) were used as controls. Preparations were observed under TEM (FEI MORGAGNI 282D, Hillsboro, OR, USA) by the dip method: the carbon coated copper/rhodium grids were incubated with treated and untreated bacterial suspension for 2 min, and then rinsed with 200 μL of distilled water. Negative staining was obtained by floating the grids on 200 μL of 0.5 % w/v UA-zero EM STAIN (Agar-Scientific Ltd., Stansted, UK) solution and observing them under the EM using an accelerating voltage of 80 kV.

Row | SMILES | TEM morphology of treated E. amylovora cells (in words)
1 | CC1(C)S[C@@H]2[C@H](NC(=O)[C@H](N)c3ccccc3)C(=O)N2[C@H]1C(=O)O [ampicillin] | damaged cell walls and the decomposition of inner structures
2 | [H]/N=C(/N)N[C@H]1[C@H](O)[C@@H](O)[C@H](O[C@@H]2O[C@@H](C)[C@](O)(C=O)[C@H]2O[C@@H]2O[C@@H](CO)[C@H](O)[C@@H](O)[C@@H]2NC)[C@@H](N/C(N)=N\[H])[C@@H]1O [streptomycin] | reduced cell lysis and morphological alterations similar to those treated with KL29 at 250 µM
